# Measurements reported in patent US20070015149A1, “Prlz regulatory elements in the treatment of disease and the discovery of therapeutics” (priority 2002, published 2007).
# Columns and labels:
# PrLZ expression = assay: Androgen-activated PrLZ expression in prostate cancer cell lines after androgen deprivation; type: cell-based, human
# Protocol: (§1) As an accessory sex organ, development and function of the prostate gland are controlled by androgens, through the mediation of the AR (Gelmann, J. Clin. Oncol. 20:3001-15, 2002). To investigate the possible regulation of PrLZ by androgens, we treated prostate cancer cell lines with an androgen analog, methyltrienolone (R1881, 1 nM), after androgen deprivation. Under cell culture conditions for androgen deprivation (phenol red-free RPMI1640 for 48 hours), there was a marked decline in PrLZ expression in all the prostate cancer cell lines. […] This culture system, or another like it, can be used to identify agents that modulate (by either increasing or decreasing) PrLZ expression.
# Expression studies: The 502 bp PrLZ gene-specific fragment was subcloned after PCR amplification of the PrLZ cDNA in pBK-CMV, with primers: […], and […]. The amplified DNA was cloned into pGEM-T easy (Promega) and verified by DNA sequencing. The fragment was released from the vector by EcoRi and used in hybridization reactions. Standard protocols were used in Southern and Northern blot hybridizations (Sambrook et al., Molecular cloning, a laboratory manual, Clod Spring Harbor Laboratory Press, 2001), with α-^32P-dCTP used in the labeling step. […]
# PSA expression = assay: Androgen-activated PSA expression in LNCaP lineage cells; type: cell-based, human; details: LNCaP vs C4-2 and C4-2B4 cells
# Protocol: as §1
# By comparing the patterns of androgen-activated expression of PrLZ and PSA, it became clear that PrLZ was controlled by a regulatory mechanism that was different from the one controlling the PSA expression. […] Thus, along the transition from an AD to an AI state, there were heterologous changes in AR mediated gene regulation. While LNCAP derivative cell lines lost the mechanism of AR-controlled PSA production, they maintained the capability to regulate some other androgen responsive genes, including PrLZ.
# [1] = system: expression of TPD52 members; details: HL-60 and K-562 cells; cited from earlier work
Structure (SMILES),"PrLZ expression upon androgen treatment (PrLZ expression; R1881 1 nM after androgen deprivation (phenol red-free RPMI1640, 48 hours), prostate cancer cell lines)","PrLZ transcription upon androgen treatment (PrLZ expression; all LNCaP lineage cells (LNCaP, C4-2, C4-2B4))",PSA expression upon androgen treatment (PSA expression),Expression of TPD52 members upon treatment [1]
"C[C@]1(O)CC[C@H]2[C@@H]3CCC4=CC(=O)CCC4=C3C=C[C@@]21C [R1881, methyltrienolone]",dramatically activated the expression of the PrLZ,marked PrLZ transcription,androgen-dependent up-regulation only in LCNaP cells,
"CCCCCCCCCCCCCC(=O)O[C@@H]1[C@@H](C)[C@@]2(O)[C@@H](C=C(CO)C[C@]3(O)C(=O)C(C)=C[C@@H]23)[C@H]2C(C)(C)[C@]12OC(C)=O [TPA, 12-O-trtradecanoylphorbol-13-acetate]",,,,inhibited
